Results: patent US20120329787A1, “FUNGICIDAL PYRANONES AND OXAZINONES” (E.I. DU PONT DE NEMOURS AND COMPANY, priority 2011, published 2012)
Marks after values point to notes of the source that are not given here.

What was measured:
Assay type in all cases: in vivo
Alternaria solani = assay: Test B: tomato early blight, spray on tomato seedlings the day before inoculation; settings: 200 ppm test suspension; for pest or weed control at 200 ppm: Alternaria solani, 168 h, read-out: Test B rating (100 = 100% disease control, 0 = no disease control)
Excerpt: General protocol for preparing test suspensions for Tests A-I: the test compounds were first dissolved in acetone in an amount equal to 3% of the final volume and then suspended at the desired concentration (in ppm) in acetone and purified water (50/50 mix by volume) containing 250 ppm of the surfactant Trem® 014 (polyhydric alcohol esters). The resulting test suspensions were then used in Tests A-I. Spraying a 200 ppm test suspension to the point of run-off on the test plants was the equivalent of a rate of 500 g/ha. […] (An asterisk “*” next to the rating value indicates a 40 ppm test suspension was used.) The test suspension was sprayed to the point of run-off on tomato seedlings. The following day, the seedlings were inoculated with a spore suspension of Alternaria solani (the causal agent of tomato early blight) and incubated in a saturated atmosphere at 27° C. for 48 h, and then moved to a growth chamber at 20° C. for 5 days, after which time visual disease ratings were made. […] A dash (-) indicates no test results. All results are for 200 ppm except where followed by an asterisk “*”, which indicates a 40 ppm.

[1] = test system: Puccinia recondita f. sp. tritici; assay: Test G: wheat leaf rust, spray on wheat seedlings after inoculation (curative); settings: 200 ppm test suspension, sprayed after inoculation; for pest or weed control at 200 ppm: Puccinia recondita, 96 h, read-out: Test G rating (100 = 100% disease control, 0 = no disease control)
Excerpt: General protocol for preparing test suspensions for Tests A-I: the test compounds were first dissolved in acetone in an amount equal to 3% of the final volume and then suspended at the desired concentration (in ppm) in acetone and purified water (50/50 mix by volume) containing 250 ppm of the surfactant Trem® 014 (polyhydric alcohol esters). The resulting test suspensions were then used in Tests A-I. Spraying a 200 ppm test suspension to the point of run-off on the test plants was the equivalent of a rate of 500 g/ha. […] (An asterisk “*” next to the rating value indicates a 40 ppm test suspension was used.) Wheat seedlings were inoculated with a spore suspension of Puccinia recondita f. sp. tritici (the causal agent of wheat leaf rust) and incubated in a saturated atmosphere at 20° C. for 24 h, and then moved to a growth chamber at 20° C. for 2 days. At the end of this time, the test suspension was sprayed to the point of run-off, and then the seedlings were moved to a growth chamber at 20° C. for 4 days after which time visual disease ratings were made. […] A dash (-) indicates no test results. All results are for 200 ppm except where followed by an asterisk “*”, which indicates a 40 ppm.

Septoria tritici = assay: Test F: wheat leaf blotch, spray on wheat seedlings the day before inoculation; settings: for pest or weed control at 200 ppm: Zymoseptoria tritici, 504 h, read-out: Test F rating (100 = 100% disease control, 0 = no disease control)
Excerpt: General protocol for preparing test suspensions for Tests A-I: the test compounds were first dissolved in acetone in an amount equal to 3% of the final volume and then suspended at the desired concentration (in ppm) in acetone and purified water (50/50 mix by volume) containing 250 ppm of the surfactant Trem® 014 (polyhydric alcohol esters). The resulting test suspensions were then used in Tests A-I. Spraying a 200 ppm test suspension to the point of run-off on the test plants was the equivalent of a rate of 500 g/ha. […] (An asterisk “*” next to the rating value indicates a 40 ppm test suspension was used.) The test suspension was sprayed to the point of run-off on wheat seedlings. The following day, the seedlings were inoculated with a spore suspension of Septoria tritici (the causal agent of wheat leaf blotch) and incubated in a saturated atmosphere at 24° C. for 48 h, and then the seedlings were moved to a growth chamber at 20° C. for 19 additional days, after which time visual disease ratings were made. […] A dash (-) indicates no test results. All results are for 200 ppm except where followed by an asterisk “*”, which indicates a 40 ppm.

Septoria nodorum = assay: Test E: Septoria glume blotch, spray on wheat seedlings the day before inoculation; settings: 200 ppm test suspension; for pest or weed control at 200 ppm: Parastagonospora nodorum, 264 h, read-out: Test E rating (100 = 100% disease control, 0 = no disease control)
Excerpt: General protocol for preparing test suspensions for Tests A-I: the test compounds were first dissolved in acetone in an amount equal to 3% of the final volume and then suspended at the desired concentration (in ppm) in acetone and purified water (50/50 mix by volume) containing 250 ppm of the surfactant Trem® 014 (polyhydric alcohol esters). The resulting test suspensions were then used in Tests A-I. Spraying a 200 ppm test suspension to the point of run-off on the test plants was the equivalent of a rate of 500 g/ha. […] (An asterisk “*” next to the rating value indicates a 40 ppm test suspension was used.) The test suspension was sprayed to the point of run-off on wheat seedlings. […] A dash (-) indicates no test results. All results are for 200 ppm except where followed by an asterisk “*”, which indicates a 40 ppm.

Botrytis cinerea = assay: Test A: tomato Botrytis, spray on tomato seedlings the day before inoculation; settings: 200 ppm test suspension; for pest or weed control at 200 ppm: Botrytis cinerea, 120 h, read-out: Test A rating (100 = 100% disease control, 0 = no disease control)
Excerpt: General protocol for preparing test suspensions for Tests A-I: the test compounds were first dissolved in acetone in an amount equal to 3% of the final volume and then suspended at the desired concentration (in ppm) in acetone and purified water (50/50 mix by volume) containing 250 ppm of the surfactant Trem® 014 (polyhydric alcohol esters). The resulting test suspensions were then used in Tests A-I. Spraying a 200 ppm test suspension to the point of run-off on the test plants was the equivalent of a rate of 500 g/ha. […] (An asterisk “*” next to the rating value indicates a 40 ppm test suspension was used.) The test suspension was sprayed to the point of run-off on tomato seedlings. The following day, the seedlings were inoculated with a spore suspension of Botrytis cinerea (the causal agent of tomato Botrytis) and incubated in a saturated atmosphere at 20° C. for 48 h, and then moved to a growth chamber at 24° C. for 3 additional days, after which time visual disease ratings were made. […] A dash (-) indicates no test results. All results are for 200 ppm except where followed by an asterisk “*”, which indicates a 40 ppm.

[2] = test system: Puccinia recondita f. sp. tritici; assay: Test H: wheat leaf rust, spray on wheat seedlings the day before inoculation; settings: 200 ppm test suspension, sprayed before inoculation; for pest or weed control at 200 ppm: Puccinia recondita, 168 h, read-out: Test H rating (100 = 100% disease control, 0 = no disease control)
Excerpt: General protocol for preparing test suspensions for Tests A-I: the test compounds were first dissolved in acetone in an amount equal to 3% of the final volume and then suspended at the desired concentration (in ppm) in acetone and purified water (50/50 mix by volume) containing 250 ppm of the surfactant Trem® 014 (polyhydric alcohol esters). The resulting test suspensions were then used in Tests A-I. Spraying a 200 ppm test suspension to the point of run-off on the test plants was the equivalent of a rate of 500 g/ha. […] (An asterisk “*” next to the rating value indicates a 40 ppm test suspension was used.) The test suspension was sprayed to the point of run-off on wheat seedlings. The following day, the seedlings were inoculated with a spore suspension of Puccinia recondita f. sp. tritici (the causal agent of wheat leaf rust) and incubated in a saturated atmosphere at 20° C. for 24 h, and then moved to a growth chamber at 20° C. for 6 days, after which time visual disease ratings were made Results for Tests A-I are given in Table A. […] A dash (-) indicates no test results. All results are for 200 ppm except where followed by an asterisk “*”, which indicates a 40 ppm.

[3] = test system: Erysiphe graminis f. sp. tritici; assay: Test I: wheat powdery mildew, spray on wheat seedlings the day before inoculation; settings: 200 ppm test suspension; for pest or weed control at 200 ppm: Blumeria graminis, 168 h, read-out: Test I rating (100 = 100% disease control, 0 = no disease control)
Excerpt: General protocol for preparing test suspensions for Tests A-I: the test compounds were first dissolved in acetone in an amount equal to 3% of the final volume and then suspended at the desired concentration (in ppm) in acetone and purified water (50/50 mix by volume) containing 250 ppm of the surfactant Trem® 014 (polyhydric alcohol esters). The resulting test suspensions were then used in Tests A-I. Spraying a 200 ppm test suspension to the point of run-off on the test plants was the equivalent of a rate of 500 g/ha. […] (An asterisk “*” next to the rating value indicates a 40 ppm test suspension was used.) The test suspension was sprayed to the point of run-off on wheat seedlings. The following day, the seedlings were inoculated with a spore dust of Erysiphe graminis f. sp. tritici, (the causal agent of wheat powdery mildew) and incubated in a growth chamber at 20° C. for 7 days, after which time visual disease ratings were made. […] A dash (-) indicates no test results. All results are for 200 ppm except where followed by an asterisk “*”, which indicates a 40 ppm.

Row | Molecule | Test B rating (100 = 100% disease control, 0 = no disease control) (Alternaria solani) | Test G rating (100 = 100% disease control, 0 = no disease control) [1] | Test F rating (100 = 100% disease control, 0 = no disease control) (Septoria tritici; 40 ppm test suspension (asterisk)) | Test E rating (100 = 100% disease control, 0 = no disease control) (Septoria nodorum) | Test A rating (100 = 100% disease control, 0 = no disease control) (Botrytis cinerea) | Test H rating (100 = 100% disease control, 0 = no disease control) [2] | Test I rating (100 = 100% disease control, 0 = no disease control) [3] | pest or weed control at 200 ppm (Alternaria solani) | pest or weed control at 200 ppm [1] | pest or weed control at 200 ppm (Septoria tritici; 200 ppm test suspension) | pest or weed control at 200 ppm (Septoria nodorum) | pest or weed control at 200 ppm (Botrytis cinerea) | pest or weed control at 200 ppm [2] | pest or weed control at 200 ppm [3] | Test F rating (100 = 100% disease control, 0 = no disease control) (Septoria tritici; 200 ppm test suspension)
1 | 4-(2-chloro-3,5-dimethoxyphenyl)-3,6-dimethyl-5-(2,4,6-trifluorophenyl)-2H-pyran-2-one [Compound 58] | 100% | 100% | 100* % | 100% | 100% | 100% | 100% |  |  |  |  |  |  |  | 
2 | COc1cc(OC)cc(-c2c(-c3ccccc3F)noc(=O)c2-c2c(F)cc(F)cc2F)c1 [Compound 23, 4-(3,5-dimethoxyphenyl)-3-(2-fluorophenyl)-5-(2,4,6-trifluorophenyl)-6H-1,2-oxazin-6-one] |  |  |  |  |  |  |  | 93% | 9% | 99% | 95% | 100% | 100% | 0% | 
3 | COc1cc(OC)cc(-c2c(C)noc(=O)c2-c2c(F)cc(F)cc2F)c1 [Compound 24] | 63% | 0% |  | 0% | 98% |  | 99% |  |  |  |  |  |  |  | 99%
4 | COc1cc(OC)c(Cl)c(-c2c(C)noc(=O)c2-c2c(F)cc(F)cc2F)c1 [Compound 25, 4-(2-chloro-3,5-dimethoxyphenyl)-3-methyl-5-(2,4,6-trifluorophenyl)-6H-1,2-oxazin-6-one] |  |  |  |  |  |  |  | 97% | 100% | 100% | 0% | 100% | 100% | 100% | 
5 | COc1cc(OC)cc(-c2c(-c3ccccc3F)c(C)oc(=O)c2-c2ccccc2)c1 [Compound 26] | 93% | 9% |  | 0% | 99% | 100% | 27% |  |  |  |  |  |  |  | 95%
6 | COc1cc(OC)cc(-c2c(-c3ccc(F)cc3F)c(C)oc(=O)c2-c2ccccc2)c1 [Compound 27] | 100% | 93% |  | 99% | 98% | 100% | 82% |  |  |  |  |  |  |  | 99%
7 | COc1cccc(-c2c(-c3ccccc3F)c(C)oc(=O)c2-c2ccccc2)c1 [Compound 28] | 0% | 0% |  | 0% | 100% | 99% | 64% |  |  |  |  |  |  |  | 98%
8 | COc1cc(OC)c(Cl)c(-c2c(-c3c(F)cc(F)cc3F)c(C)oc(=O)c2C)c1Cl [Compound 59] | 0% | 82% |  | 0% | 100% | 100% | 90% |  |  |  |  |  |  |  | 
9 | COc1cc(OC)cc(-c2c(-c3ccccc3F)c(C)oc(=O)c2C)c1 [Compound 60] | 26% | 96% |  | 0% |  | 100% | 98% |  |  |  |  |  |  |  | 100%
